Reference: the supplement of paper PMC5908809

How the values were obtained:
[1] = tested on: normal NK cells expanded with K562-aAPC; experiment: percent inhibition of viability; higher = more inhibition; conditions: 72 h, IL-2 2.5 ng/mL
Procedure: (§1)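 Drug sensitivity and resistance testing on K562-aAPC-expanded normal NK cells: 5 concentrations (10-fold steps over a 10,000-fold range), 72 h at 37 °C, viability by CellTiter-Glo normalised to DMSO and benzethonium chloride controls; DSS from the fitted curve.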

[2] = tested on: normal NK cells expanded with K562-aAPC; experiment: drug sensitivity score (DSS) (DSS units); higher = more sensitive; extreme values may be limits of the assay; conditions: 72 h; IL-2 2.5 ng/mL
Procedure: as §1

DERL-7 (IL-2 2.5 ng/mL) [3] = experiment: as above; conditions: 72 h
[4] = tested on: normal primary NK cells, pool 1 (3 donors) (IL-2 2.5 ng/mL); experiment: as above; conditions: 72 h
NKL (IL-2 2.5 ng/mL) [5] = experiment: as above; conditions: 72 h
KAI3 (IL-2 2.5 ng/mL) [6] = experiment: as above; conditions: 72 h
IMC-1 (IL-2 20 ng/mL) [7] = experiment: as above; conditions: 72 h
[8] = tested on: normal primary NK cells, pool 1 (3 donors), resting (IL-2 0 ng/mL); experiment: as above; conditions: 72 h
SNK-6 (IL-2 2.5 ng/mL) [9] = experiment: as above; conditions: 72 h
[10] = tested on: normal primary NK cells, pool 2 (3 donors) (IL-2 2.5 ng/mL); experiment: as above; conditions: 72 h
[11] = tested on: normal primary NK cells, pool 3 (3 donors) (IL-2 2.5 ng/mL); experiment: as above; conditions: 72 h
YT (IL-2 2.5 ng/mL) [12] = experiment: as above; conditions: 72 h
KHYG-1 (IL-2 2.5 ng/mL) [13] = experiment: as above; conditions: 72 h
NK-YS (IL-2 2.5 ng/mL) [14] = experiment: as above; conditions: 72 h
NK-92 (IL-2 2.5 ng/mL) [15] = experiment: as above; conditions: 72 h
DERL-7 (IL-2 2.5 ng/mL) [16] = experiment: percent inhibition of viability; higher = more inhibition; conditions: 72 h
[17] = tested on: normal primary NK cells, pool 1 (3 donors) (IL-2 2.5 ng/mL); experiment: as above; conditions: 72 h
NKL (IL-2 2.5 ng/mL) [18] = experiment: as above; conditions: 72 h
KAI3 (IL-2 2.5 ng/mL) [19] = experiment: as above; conditions: 72 h
IMC-1 (IL-2 20 ng/mL) [20] = experiment: as above; conditions: 72 h
[21] = tested on: normal primary NK cells, pool 1 (3 donors), resting (IL-2 0 ng/mL); experiment: as above; conditions: 72 h
SNK-6 (IL-2 2.5 ng/mL) [22] = experiment: as above; conditions: 72 h
[23] = tested on: normal primary NK cells, pool 2 (3 donors) (IL-2 2.5 ng/mL); experiment: as above; conditions: 72 h
[24] = tested on: normal primary NK cells, pool 3 (3 donors) (IL-2 2.5 ng/mL); experiment: as above; conditions: 72 h
YT (IL-2 2.5 ng/mL) [25] = experiment: as above; conditions: 72 h
KHYG-1 (IL-2 2.5 ng/mL) [26] = experiment: as above; conditions: 72 h
NK-YS (IL-2 2.5 ng/mL) [27] = experiment: as above; conditions: 72 h
NK-92 (IL-2 2.5 ng/mL) [28] = experiment: as above; conditions: 72 h

CNC(=O)c1cc(Oc2ccc(NC(=O)Nc3cc(C(C)(C)C)nn3-c3ccc4ncccc4c3)c(F)c2)ccn1 [Rebastinib] (max concentration tested 1000 nM)
percent inhibition of viability [%]
Conditions | 0.1 nM | 1 nM | 10 nM | 100 nM | 1000 nM
DERL-7 (IL-2 2.5 ng/mL) [16] | -4.96 | 1.69 | -0.5 | -4.52 | -8.09
IMC-1 (IL-2 20 ng/mL) [20] | 0.93 | 7.15 | -1.23 | 1.86 | -6.19
KAI3 (IL-2 2.5 ng/mL) [19] | 7.99 | 9.63 | 10.5 | 5.1 | -6.78
KHYG-1 (IL-2 2.5 ng/mL) [26] | -2.88 | -0.08 | 0.01 | -1.2 | -8.03
NK-92 (IL-2 2.5 ng/mL) [28] | -1.88 | 1.51 | -1.48 | 0.06 | -12.8
NK-YS (IL-2 2.5 ng/mL) [27] | -1.58 | -3.98 | -0.95 | 1.01 | 2.92
NKL (IL-2 2.5 ng/mL) [18] | -2.2 | -3.91 | -1.3 | 8.69 | 5.2
SNK-6 (IL-2 2.5 ng/mL) [22] | 7.77 | 13.4 | -14.2 | 1.04 | -59.9
YT (IL-2 2.5 ng/mL) [25] | -4.61 | -3.15 | -0.26 | 1.61 | -0.37
[1] | -1.77 | -3.86 | -0.78 | -3.03 | -4.18
[17] | -3.76 | -8.51 | -9.53 | -4.2 | -12.7
[21] | -11.2 | -7.34 | -6.2 | -15.4 | 1.95
[23] | -4.03 | -4.97 | -4.4 | -1.73 | -9.3
[24] | -9.69 | -6.19 | -1.5 | -11 | -8.81

Conditions | drug sensitivity score
DERL-7 (IL-2 2.5 ng/mL) [3] | 0
IMC-1 (IL-2 20 ng/mL) [7] | 0
KAI3 (IL-2 2.5 ng/mL) [6] | 0
KHYG-1 (IL-2 2.5 ng/mL) [13] | 0
NK-92 (IL-2 2.5 ng/mL) [15] | 0
NK-YS (IL-2 2.5 ng/mL) [14] | 0
NKL (IL-2 2.5 ng/mL) [5] | 0
SNK-6 (IL-2 2.5 ng/mL) [9] | 0
YT (IL-2 2.5 ng/mL) [12] | 0
[2] | 0
[4] | 0
[8] | 0
[10] | 0
[11] | 0

CCOC(=O)CCNc1cc(N2CCc3ccccc3CC2)nc(-c2ccccn2)n1 [GSK-J4] (max concentration tested 100000 nM)
percent inhibition of viability [%]
Conditions | 10 nM | 100 nM | 1000 nM | 10000 nM | 100000 nM
DERL-7 (IL-2 2.5 ng/mL) [16] | -0.14 | 7.18 | 14.4 | 93.4 | 99.4
IMC-1 (IL-2 20 ng/mL) [20] | -5.61 | -2.96 | 39.7 | 97 | 100
KAI3 (IL-2 2.5 ng/mL) [19] | -4.58 | 1.93 | 2.78 | 94.3 | 98.9
KHYG-1 (IL-2 2.5 ng/mL) [26] | -1.03 | -1.4 | 20 | 101 | 99.2
NK-92 (IL-2 2.5 ng/mL) [28] | -9.95 | -0.92 | 60.9 | 104 | 98.1
NK-YS (IL-2 2.5 ng/mL) [27] | -1.22 | -3.86 | -1.41 | 98.6 | 99.6
NKL (IL-2 2.5 ng/mL) [18] | -0.55 | -7.46 | -8.29 | 104 | 98.2
SNK-6 (IL-2 2.5 ng/mL) [22] | -0.34 | 7.09 | 6.11 | 94.8 | 99.7
YT (IL-2 2.5 ng/mL) [25] | -1.98 | -3.85 | 4.52 | 104 | 99.3
[1] | -1.25 | -3.45 | -1.63 | 93.7 | 99.5
[17] | -2.65 | -4.87 | 13.6 | 97.9 | 99.8
[21] | -7.04 | -16 | 34.7 | 96.2 | 99
[23] | -5.62 | -2.09 | 5.39 | 92.4 | 98.7
[24] | -2.08 | -5.17 | 19.9 | 94 | 99.5

Conditions | drug sensitivity score
DERL-7 (IL-2 2.5 ng/mL) [3] | 18.9
IMC-1 (IL-2 20 ng/mL) [7] | 22.9
KAI3 (IL-2 2.5 ng/mL) [6] | 17.5
KHYG-1 (IL-2 2.5 ng/mL) [13] | 21.2
NK-92 (IL-2 2.5 ng/mL) [15] | 25.2
NK-YS (IL-2 2.5 ng/mL) [14] | 17.6
NKL (IL-2 2.5 ng/mL) [5] | 17.6
SNK-6 (IL-2 2.5 ng/mL) [9] | 18.1
YT (IL-2 2.5 ng/mL) [12] | 18.9
[2] | 16.9
[4] | 20.2
[8] | 22.6
[10] | 17.5
[11] | 19.8
